Test [1] relates to patients with pulmonary arterial hypertension. Kind of test: Inhaled nitric oxide vasodilator challenge during right heart catheterization, retrospective review of prostacyclin wean/transition cases. It is filed as in vivo, human. The source says: Inhaled nitric oxide (NO) can be administered during right heart catheterization (RHC) to evaluate and characterize pulmonary hemodynamics following long term parenteral prostacyclin therapy and can provide information that may influence the choice of treatment strategies for these patients. These treatment strategies may involve changing vasodilator therapy, eligibility for lung and/or heart transplantation, or changes in prognosis. Inhaled nitric oxide can be a potent, selective pulmonary vasodilator agent and has been well studied up to 80 ppm. It is expected that inhaled nitric oxide as a diagnostic agent during RHC may be useful for facilitating patient management strategies and provide clinical information beneficial to patient care.
An aim of the project was to collect and review the existing data from centers experienced with the practice of transition from parenteral prostacyclins to an alternative therapy. The review was conducted to determine if a population could be characterized based on the hemodynamic response using inhaled nitric oxide during right heart catheterization. A primary objective of the project was to determine the correlation, if any, between the return of pulmonary vascular reactivity following parenteral prostacyclin therapy and the ability of the patient to transition from parenteral prostacyclins to an alternative therapy. Secondary objectives included the exploration of clinical characteristics of a patient population with a documented wean or transition from parenteral prostacyclins, as well as evaluating any change in clinical impression.
To date seven sites have contributed to the data set collected for a total of 47 baseline visits, and 246 follow-up visits. There are five failed weans and seven late failures. Data was available to review for 40 cases entered. No statistical analysis was performed and reviews completed were descriptive in order to identify any shared characteristics in the population either as a success, failure or late failure.
Three cases, where nitric oxide re-challenge data was available at the time of subject wean, are represented in Table 2.
The lack of correlation between the clinical findings and the ECHO data prompted review of the data. Baseline hemodynamics, wean hemodynamics and echocardiography data were reviewed for all the failed transitions. […] In each case, where echocardiography data was available and right ventricular enlargement was indicated and/or right ventricular dysfunction was indicated, a failed wean or late failure was common.

Test [2] shares this test system. As to conditions: active group (n=41), 12 weeks; cited from earlier work.
Test [3] shares this test system. As to conditions: epoprostenol therapy, 27 consecutive patients; cited from earlier work.
Setting [4] is: failed wean/late failure cases, Time of Wean.

The structures appear in SMILES notation. Values joined by “and” are separate entries in the source; they are usually repeats but may differ in a detail not shown here. Equal entries are not always repeated.

Consider `[N]=O` [NO, nitric oxide], for which the “acute vasodilator response (fall in PAPm of >10 mm Hg to <40 mm Hg)” value in test [1] (all three cases of Table 2) was “failed to meet the criteria”. Also, the “change in PAPm” value in test [1] (all three cases of Table 2, nitric oxide challenge at time of wean) is reported as “only a modest decrease”. Moreover, the “NO CO” value in test [1] (cardiac output on nitric oxide challenge at time of wean, one patient case per table row) was 5.2 and 7.8 and 4.77. Moreover, in test [1] (case of the failed transition), the “change in CO” value was “marked increase” and the “change in PVR” value is reported as “minimal decrease”. Also, in test [1] (setting [4]), the “WN NO CO” value came out at 5.2, the “WN NO PAPm” value was 49 and the “WN NO PVR” value is on record as 8.3. For the same molecule, the “NO PAPm” value in test [1] (mean pulmonary arterial pressure on nitric oxide challenge at time of wean, one patient case per table row) is 49 and 48 and 70. For the same molecule, the “NO PVR” value in test [1] (pulmonary vascular resistance on nitric oxide challenge at time of wean, one patient case per table row) is 8.3 and 3.8 and 14.4.
In the case of `CCCCC[C@H](O)/C=C/[C@@H]1[C@H]2C/C(=C/CCCC(=O)O)O[C@H]2C[C@H]1O` [epoprostenol], in test [2], the “average decline in mean pulmonary arterial pressure” value is 8% and the “decline in pulmonary vascular resistance” value is recorded as 21%. In addition, in test [3], the cardiac output increased is 67%, the “mean pulmonary artery pressure declined” value is 22% and the “pulmonary vascular resistance declined” value was 53%.

The values above are taken from patent publication US11154210B2, “Method of determining vasoreactivity using inhaled nitric oxide” (VERO BIOTECH LLC, priority 2011, dated 2021).
